Patent US20180207148A1 (priority 2015, published 2018)
Where two headings read alike, the source gives them in different places.

Legend:
[1] = human, in vivo
Method: (§1) A 2-part study was conducted in subjects with advanced/metastatic or recurrent gastric cancer. […] A total of 56 subjects enrolled in this study: 10 subjects with advanced malignant tumors in Part 1 and 46 subjects with advanced gastric cancer in Part 2.

[2] = dogs; for CL/F: paclitaxel 6 mg/kg with Compound A 3 mg/kg, single oral dose
[3] = test system: transplanted human tumor cell lines; test: Seven in vivo experiments, human tumor transplant cell lines in mice (overall); design: species or system mouse; conditions: paclitaxel administered IP or IV, compared with oral combination
Method: In these studies, tumor inhibition rate (IR %) was calculated as ([1-relative tumor growth in treated group/relative tumor growth in control group]×100). Tumor regression was calculated as (Mean Tumor WeightEnd of treatment/Mean tumor WeightBeginning of treatment)×100. Therefore, a value <100% for tumor regression indicates a decrease in tumor weight over the course of the study and a value >100% indicates an increase in tumor weight. Tumor growth delay was calculated as the median number of days to reach two tumor mass doublings.

clinical [4] = conditions: human, in vivo
Method: as §1

clinical [5] = conditions: human, in vivo, oral
Source text: No premedication was allowed during this treatment sequence.

clinical [6] = conditions: human, in vivo; remark: listed apart in the source
[7] = Paclitaxel pharmacokinetics in dogs after single oral dose with Compound A; conditions: dog, in vivo
[8] = Paclitaxel pharmacokinetics in rats after single oral dose with Compound A; conditions: rat, in vivo
[9] = for CL/F: po
in vivo = conditions: dog, po, 6 mg/kg, paclitaxel 6 mg/kg with Compound A 3 mg/kg, single oral dose; for AUC(0-t): AUClast; for half-life: t1/2, dogs
[10] = CNS safety pharmacology study in rats; type: in vivo, rat; conditions: Compound A administered alone
[11] = Cardiovascular safety pharmacology in dogs; type: in vivo, dog; conditions: Compound A administered alone

For `CC(=O)O[C@H]1C(=O)[C@@]2(C)[C@H]([C@H](OC(=O)c3ccccc3)[C@]3(O)C[C@H](OC(=O)[C@H](O)[C@@H](NC(=O)c4ccccc4)c4ccccc4)C(C)=C1C3(C)C)[C@]1(OC(C)=O)CO[C@@H]1C[C@@H]2O` [Paclitaxel, 5,20-Epoxy-1,2,4,7,10-13-hexahydroxytax-11-en-9-one-4,10-diacetate 2-benzoate 13-ester with (2R,3S)—N-benzoyl-3-phenylisoserine], the “Overall exposure on Day 2, higher than Day 1” value [1] was 20-30%, the “AUC, fasted group compared to fed group” value [2] was about 2 fold and the “Cmax, fasted group compared to fed group” value [2] was about 2 fold. For the same molecule, the CL/F ([2]; Fasted) was 4.2 ± 1.2 L/h, the CL/F ([2]; Fed) was 6.4 ± 1.3 L/h and the “activity against transplanted human tumor cell lines” value [3] was “generally less active”. It also gave a half-life (clinical [4]; oral) of 18.3 to 19.7 h, an AUC(0-t) (clinical [4]; oral, AUC0-24, range across dose levels, Day 1) of 611 to 894 ng·h/mL and an AUC(0-t) (clinical [4]; oral, AUC0-24, range across dose levels, Day 2) of 735 to 1080 ng·h/mL. The Cmax (clinical [4]; oral, Cmax, range across dose levels, Day 1) was 202 to 280 ng/mL, the Cmax (clinical [4]; oral, Cmax, range across dose levels, Day 2) was 159 to 315 ng/mL and the Cmax (clinical [4]; po, 90 mg/m2, Paclitaxel Cmax, Mean (SD), 90 mg/m^2, Day 1, N 2, two consecutive daily oral doses) was 202 ng/mL. The Cmax (clinical [4]; po, 90 mg/m2, Paclitaxel Cmax, Mean (SD), 90 mg/m^2, Day 2, N 2, two consecutive daily oral doses) was 315 ng/mL, the Cmax (clinical [4]; po, 120 mg/m2, Paclitaxel Cmax, Mean (SD), 120 mg/m^2, Day 2, N 3, two consecutive daily oral doses) was 159 ng/mL and the AUC(0-t) (clinical [4]; po, 150 mg/m2) was 894 ng·h/mL. The Cmax (clinical [4]; po, 150 mg/m2) was 251 ng/mL, the Cmax (clinical [4]; po, 150 mg/m2, Paclitaxel Cmax, Mean (SD), 150 mg/m^2, Day 2, N 3, two consecutive daily oral doses) was 276 ng/mL and the bioavailability (clinical [5]) was about 13.4%. The half-life (clinical [6]) was 19.9 to 32.1 h, the AUC(0-inf) (clinical [6]; po, 60 mg/m2) was 727 ng·h/mL and the AUC(0-t) (clinical [6]; po, 60 mg/m2) was 584 ng·h/mL. The Cmax (clinical [6]; po, 60 mg/m2) was 150 ng/mL, the MRT inf (clinical [6]; po, 60 mg/m2) was 28.6 h and the Vd/F (clinical [6]; po, 60 mg/m2) was 9130 L. It also gave a half-life (clinical [6]; po, 60 mg/m2) of 32.1 h, an AUC(0-inf) (clinical [6]; po, 120 mg/m2) of 1840 ng·h/mL and an AUC(0-t) (clinical [6]; po, 120 mg/m2) of 1610 ng·h/mL. It also gave a CL renal (clinical [6]; po, 120 mg/m2) of 50 mL/min, an MRT inf (clinical [6]; po, 120 mg/m2) of 17 h and a Vd/F (clinical [6]; po, 120 mg/m2) of 4040 L. The half-life (clinical [6]; po, 120 mg/m2) was 22 h, the AUC(0-inf) (clinical [6]; po, 180 mg/m2) was 1980 ng·h/mL and the AUC(0-t) (clinical [6]; po, 180 mg/m2) was 1670 ng·h/mL. For the same molecule, the CL renal (clinical [6]; po, 180 mg/m2) was 30 mL/min, the Cmax (clinical [6]; po, 180 mg/m2) was 432 ng/mL and the MRT inf (clinical [6]; po, 180 mg/m2) was 21.9 h. The Vd/F (clinical [6]; po, 180 mg/m2) was 6030 L, the half-life (clinical [6]; po, 180 mg/m2) was 24.4 h and the AUC(0-inf) (clinical [6]; po, 240 mg/m2) was 2970 ng·h/mL. The AUC(0-t) (clinical [6]; po, 240 mg/m2) was 2550 ng·h/mL, the CL renal (clinical [6]; po, 240 mg/m2) was 40 mL/min and the Cmax (clinical [6]; po, 240 mg/m2) was 510 ng/mL. The MRT inf (clinical [6]; po, 240 mg/m2) was 23.4 h, the Vd/F (clinical [6]; po, 240 mg/m2) was 6010 L and the half-life (clinical [6]; po, 240 mg/m2) was 25.7 h. It also gave an AUC(0-inf) (clinical [6]; po, 300 mg/m2) of 3480 ng·h/mL, an AUC(0-t) (clinical [6]; po, 300 mg/m2) of 3140 ng·h/mL and a CL renal (clinical [6]; po, 300 mg/m2) of 33.3 mL/min. The Cmax (clinical [6]; po, 300 mg/m2) was 920 ng/mL, the MRT inf (clinical [6]; po, 300 mg/m2) was 16.2 h and the Vd/F (clinical [6]; po, 300 mg/m2) was 4930 L. The half-life (clinical [6]; po, 300 mg/m2) was 21.2 h, the AUC(0-inf) (clinical [6]; po, 360 mg/m2) was 2850 ng·h/mL and the AUC(0-t) (clinical [6]; po, 360 mg/m2) was 2510 ng·h/mL. For the same molecule, the CL renal (clinical [6]; po, 360 mg/m2) was 122 mL/min, the MRT inf (clinical [6]; po, 360 mg/m2) was 18.7 h and the Vd/F (clinical [6]; po, 360 mg/m2) was 6840 L. For the same molecule, the half-life (clinical [6]; po, 360 mg/m2) was 20.8 h, the AUC(0-inf) (clinical [6]; po, 420 mg/m2) was 3730 ng·h/mL and the AUC(0-t) (clinical [6]; po, 420 mg/m2) was 3410 ng·h/mL. For the same molecule, the CL renal (clinical [6]; po, 420 mg/m2) was 48.3 mL/min, the MRT inf (clinical [6]; po, 420 mg/m2) was 14.7 h and the Vd/F (clinical [6]; po, 420 mg/m2) was 7180 L. It also gave a half-life (clinical [6]; po, 420 mg/m2) of 19.9 h, an AUC(0-t) ([7]; 2 mg/kg) of 413 ng·h/mL and a Tmax ([7]; 2 mg/kg) of 0.5 h. For the same molecule, the AUC(0-t) ([7]; 4 mg/kg) was 1330 ng·h/mL, the Tmax ([7]; 4 mg/kg) was 0.7 h and the AUC(0-t) ([7]; 6 mg/kg) was 2120 ng·h/mL. It also gave a Tmax ([7]; 6 mg/kg) of 0.5 h, an AUC(0-t) ([8]; 5 mg/kg) of 333 ng·h/mL and a Cmax ([8]; 5 mg/kg) of 103 ng/mL. The Tmax ([8]; 5 mg/kg) was 0.6 h, the AUC(0-t) ([8]; 10 mg/kg) was 1030 ng·h/mL and the Cmax ([8]; 10 mg/kg) was 356 ng/mL. It also gave a Tmax ([8]; 10 mg/kg) of 0.7 h, an AUC(0-t) ([8]; 20 mg/kg) of 3010 ng·h/mL and a Cmax ([8]; 20 mg/kg) of 852 ng/mL. The Tmax ([8]; 20 mg/kg) was 1.2 h, the AUC(0-t) ([8]; 30 mg/kg) was 6640 ng·h/mL and the Cmax ([8]; 30 mg/kg) was 1760 ng/mL. For the same molecule, the Tmax ([8]; 30 mg/kg) was 1.2 h, the half-life ([8]; 30 mg/kg) was 6 h and the AUC(0-t) ([8]; 40 mg/kg) was 11100 ng·h/mL. For the same molecule, the Cmax ([8]; 40 mg/kg) was 2490 ng/mL, the Tmax ([8]; 40 mg/kg) was 1.5 h and the half-life ([8]; 40 mg/kg) was 5.5 h. The AUC(0-t) ([8]; 50 mg/kg) was 13100 ng·h/mL, the Cmax ([8]; 50 mg/kg) was 3070 ng/mL and the half-life ([8]; 50 mg/kg) was 5.3 h. For the same molecule, the “Mean apparent clearance (CL/F)” value ([9]; human, in vivo) was “up to 244.9 L/h”, the CL/F ([9]; human, in vivo, 60 mg/m2) was 178.4 L/h and the CL/F ([9]; human, in vivo, 180 mg/m2) was 173.4 L/h. It also gave a CL/F ([9]; human, in vivo, 240 mg/m2) of 147.6 L/h, a CL/F ([9]; human, in vivo, 360 mg/m2) of 228.7 L/h and a CL/F ([9]; human, in vivo, 420 mg/m2) of 244.9 L/h. For the same molecule, the MTD ([9]; oral paclitaxel 60 to 420 mg/m^2 on days 1, 8 and 15 of 28-day cycle with Compound A) was “not reached”, the overall toxicity profile ([9]; orally administered in combination with Compound A, neutropenia the adverse event associated with discontinuation) was “consistent with that of paclitaxel” and the AUC(0-t) (in vivo; dogs, Fasted) was 1600 ± 416 ng·h/mL. For the same molecule, the AUC(0-t) (in vivo; dogs, Fed) was 849 ± 120 ng·h/mL, the Cmax (in vivo; Cmax, dogs, Fed) was 299 ± 54.6 ng/mL and the Tmax (in vivo; dogs, Fasted) was 0.5 h. For the same molecule, the Tmax (in vivo; dogs, Fed) was 0.7 ± 0.2 h, the Vd/F (in vivo; dogs, Fasted) was 57.9 ± 17.4 L and the Vd/F (in vivo; dogs, Fed) was 88 ± 19.6 L. For the same molecule, the half-life (in vivo; Fasted) was 9.4 ± 0.3 h and the half-life (in vivo; Fed) was 9.9 ± 2.7 h.

In the case of `COc1cc2c(cc1OC)CN(CCc1ccc(-n3nnc(-c4cc(OC)c(OC)cc4NC(=O)c4cc(=O)c5ccccc5o4)n3)cc1)CC2.CS(=O)(=O)O.O` [Compound A], the “reductions in body temperature” value [10] is reported as “absence” and the “reductions in PR and QRS intervals” value [11] is reported as “absence”.
